For data set [1], the system named is Plasmodium falciparum TM4/8.2 (wild type). As to the kind of experiment: In vitro antimalarial activity, [3H]-hypoxanthine incorporation, TM4/8.2. The conditions noted are these: P. falciparum TM4/8.2, wild type. Type of data set: cell-based. Here is the method:
P. falciparum strains were used in this study. P. falciparum strains were maintained continuously in human erythrocytes at 37° C. under 3% CO2 in RPMI 1640 culture media supplemented with 25 mM HEPES, pH 7.4, 0.2% NaHCO3, 40 μg/mL gentamicin and 10% human serum.
In vitro antimalarial activity was determined by using [^3H]-hypoxanthine incorporation method. The drugs were initially dissolved in DMSO and diluted with the culture media. Aliquots (25 μL) of the drug of different concentrations were dispensed in 96-well plates and 200 μL of 1.5% cell suspension of parasitized erythrocytes containing 1-2% parasitemia were added. […] The mixtures were incubated in a 3% CO2 incubator at 37° C. After 24 h of incubation, 25 μL (0.25 μCi) of [^3H]-hypoxanthine were added to each well. The parasite cultures were further incubated under the same condition for 18-24 h. DNA of parasites was harvested onto glass filter paper. The filters were air-dried and 20 μL liquid scintillation fluid was added. The radioactivity on the filters was then measured using a microplate scintillation counter. […] Examples of the invented compounds in this series with active antimalarial activity against wild type and in particular against parasites carrying single, double, triple, and quadruple mutant enzymes are as summarized in Table 2.

In data set [2] the target is PfDHFR C59R + S108N + I164L (Plasmodium falciparum, UniProt A7UD81, C59R/I164L/S108N). The data set is described as follows: biochemical.
Data set [3] is described as follows: Cytotoxicity to mammalian cells, KB. The data set is classed as cell-based. The note with it: human, KB cells (human epidermoid carcinoma). Here is the method: (§1) Cytotoxicity tests of the invented compounds against African green monkey kidney fibroblast (Vero cells), Human epidermoid carcinoma (KB) cells, Human breast cancer (BC) cells were performed according to the protocol described by Skehan et al (1990). These compounds have selectivity against malaria parasites with no or less effect on mammalian cell lines.

The nature of data set [4]: Cytotoxicity to mammalian cells, Vero. The data set is classed as cell-based. The note with it: African green monkey, Vero cells (African green monkey kidney epithelial cells).
Data set [5] deals with E. coli. The data set is described as follows: Antibacterial activity, bacterial growth inhibition, E. coli. Type of data set: cell-based. The conditions noted are these: Escherichia coli, 20 hours incubation, 600 nm. The method, then: (§2) The IC50-values was determined from the sigmoidal curve obtained by plotting the percentages of bacterial growth against drug concentrations. These compounds have selectivity against malaria parasites with no or less effect on bacteria. The antibacterial activities to S. aureus, and E. coli are as summerized in Table 4.

Data set [6] deals with T1, PfDHFR C59R + S108N (Plasmodium falciparum, UniProt A7UD81, C59R/S108N).
T1 construct: made in house; host or cells: E. coli BL21 (DE3)pLysS
The data set is described as follows: PfDHFR enzyme inhibition constants (Ki), double mutant C59R + S108N. Type of data set: biochemical.

Data set [7] has as its target dihydrofolate reductase of Plasmodium falciparum, wild type (Plasmodium falciparum, UniProt A7UD81). As to the kind of experiment: PfDHFR enzyme inhibition constants (Ki), wild type. Type of data set: biochemical. The note with it: 25° C., 340 nm.
In data set [8] the test system is Staphylococcus aureus. As to the kind of experiment: Antibacterial activity, bacterial growth inhibition, S. aureus. The data set is classed as cell-based. The conditions noted are these: 20 hours incubation, 600 nm. The method, then:
as §2

Data set [9] deals with PfDHFR N51I + C59R + S108N (Plasmodium falciparum, UniProt A7UD81, C59R/N51I/S108N). The data set is described as follows: biochemical.
Data set [10] deals with T2, PfDHFR N51I + C59R + S108N + I164L (Plasmodium falciparum, UniProt A7UD81, C59R/I164L/N51I/S108N).
T2 construct: made in house; host or cells: E. coli BL21 (DE3)pLysS
As to the kind of experiment: PfDHFR enzyme inhibition constants (Ki), quadruple mutant N51I + C59R + S108N + I164L. The data set is classed as biochemical.

The target of data set [11] is T3, PfDHFR S108N (Plasmodium falciparum, UniProt A7UD81, S108N).
T3 construct: made in house; host or cells: E. coli BL21 (DE3)pLysS
The data set is described as follows: PfDHFR enzyme inhibition constants (Ki), single mutant S108N. The data set is classed as biochemical.

The nature of data set [12]: Cytotoxicity to mammalian cells, BC. Type of data set: cell-based. The conditions noted are these: human, BC cells (human breast cancer). Here is the method: as §1

T2 sequence (A7UD81 whole entry N51I/C59R/S108N/I164L): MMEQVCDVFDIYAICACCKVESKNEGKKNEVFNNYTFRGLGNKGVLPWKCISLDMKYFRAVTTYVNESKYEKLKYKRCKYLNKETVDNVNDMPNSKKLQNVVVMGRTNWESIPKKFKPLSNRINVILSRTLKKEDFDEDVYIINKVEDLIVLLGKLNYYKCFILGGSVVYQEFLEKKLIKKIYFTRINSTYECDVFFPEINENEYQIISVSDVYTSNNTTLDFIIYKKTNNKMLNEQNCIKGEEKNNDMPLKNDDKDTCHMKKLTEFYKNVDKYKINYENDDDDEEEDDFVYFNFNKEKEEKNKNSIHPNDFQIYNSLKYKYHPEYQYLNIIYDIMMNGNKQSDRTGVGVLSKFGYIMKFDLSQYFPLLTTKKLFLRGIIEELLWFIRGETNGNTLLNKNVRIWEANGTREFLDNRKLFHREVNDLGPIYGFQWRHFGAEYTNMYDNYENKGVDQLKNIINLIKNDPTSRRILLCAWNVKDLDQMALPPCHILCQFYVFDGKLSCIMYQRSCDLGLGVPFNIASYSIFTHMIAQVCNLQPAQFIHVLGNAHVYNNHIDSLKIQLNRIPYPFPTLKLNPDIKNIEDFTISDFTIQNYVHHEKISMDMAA
PfDHFR C59R + S108N + I164L, sequence (A7UD81 whole entry C59R/S108N/I164L): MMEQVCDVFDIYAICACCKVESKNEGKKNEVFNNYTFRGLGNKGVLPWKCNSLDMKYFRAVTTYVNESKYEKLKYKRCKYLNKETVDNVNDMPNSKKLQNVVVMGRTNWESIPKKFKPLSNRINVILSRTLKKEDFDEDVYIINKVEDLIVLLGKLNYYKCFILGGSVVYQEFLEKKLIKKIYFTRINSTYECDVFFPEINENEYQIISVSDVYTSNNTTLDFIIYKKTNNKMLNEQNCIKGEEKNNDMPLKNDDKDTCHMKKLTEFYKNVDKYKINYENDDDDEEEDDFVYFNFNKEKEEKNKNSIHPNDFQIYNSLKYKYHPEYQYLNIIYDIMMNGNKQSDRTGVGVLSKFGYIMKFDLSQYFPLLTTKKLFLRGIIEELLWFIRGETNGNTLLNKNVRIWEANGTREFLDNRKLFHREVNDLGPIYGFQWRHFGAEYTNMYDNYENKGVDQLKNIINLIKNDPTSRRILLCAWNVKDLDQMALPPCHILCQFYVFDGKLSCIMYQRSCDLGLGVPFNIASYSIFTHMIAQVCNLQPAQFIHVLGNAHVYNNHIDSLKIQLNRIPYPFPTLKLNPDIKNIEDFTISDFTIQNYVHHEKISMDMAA
PfDHFR N51I + C59R + S108N, sequence (A7UD81 whole entry N51I/C59R/S108N): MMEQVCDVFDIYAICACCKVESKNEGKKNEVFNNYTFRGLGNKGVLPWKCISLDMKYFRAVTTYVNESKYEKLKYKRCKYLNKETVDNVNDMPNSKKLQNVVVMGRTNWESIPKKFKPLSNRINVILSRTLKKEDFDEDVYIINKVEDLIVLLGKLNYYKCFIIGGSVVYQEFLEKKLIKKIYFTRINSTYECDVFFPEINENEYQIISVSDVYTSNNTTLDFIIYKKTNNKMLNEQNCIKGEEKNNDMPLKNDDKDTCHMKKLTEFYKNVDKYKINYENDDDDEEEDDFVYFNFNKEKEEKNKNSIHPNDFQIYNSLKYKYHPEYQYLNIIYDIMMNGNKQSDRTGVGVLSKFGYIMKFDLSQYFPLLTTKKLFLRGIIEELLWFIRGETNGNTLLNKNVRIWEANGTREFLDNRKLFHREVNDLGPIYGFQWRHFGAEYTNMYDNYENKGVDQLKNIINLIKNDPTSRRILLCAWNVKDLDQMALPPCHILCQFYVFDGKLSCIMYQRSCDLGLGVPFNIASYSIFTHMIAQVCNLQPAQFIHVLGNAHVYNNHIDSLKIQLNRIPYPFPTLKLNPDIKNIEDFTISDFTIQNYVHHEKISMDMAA
dihydrofolate reductase of Plasmodium falciparum, wild type, sequence (A7UD81 entry or part of it): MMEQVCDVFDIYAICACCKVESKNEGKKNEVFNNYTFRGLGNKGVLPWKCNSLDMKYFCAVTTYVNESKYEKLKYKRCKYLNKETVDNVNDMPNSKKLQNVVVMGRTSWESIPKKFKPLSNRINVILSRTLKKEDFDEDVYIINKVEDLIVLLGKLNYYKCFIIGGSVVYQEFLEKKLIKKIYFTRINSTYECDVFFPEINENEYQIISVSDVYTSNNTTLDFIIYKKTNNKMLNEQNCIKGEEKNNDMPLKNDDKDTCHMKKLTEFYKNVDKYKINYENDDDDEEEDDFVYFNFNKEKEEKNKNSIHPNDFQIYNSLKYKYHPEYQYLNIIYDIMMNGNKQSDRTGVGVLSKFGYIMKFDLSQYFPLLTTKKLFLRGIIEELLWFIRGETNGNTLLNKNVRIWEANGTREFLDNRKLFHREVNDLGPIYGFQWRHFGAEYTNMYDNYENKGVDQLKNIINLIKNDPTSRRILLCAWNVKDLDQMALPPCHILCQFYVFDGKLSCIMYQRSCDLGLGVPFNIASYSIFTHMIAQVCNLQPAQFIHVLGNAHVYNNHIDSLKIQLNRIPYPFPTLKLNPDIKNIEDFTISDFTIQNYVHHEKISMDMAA
T1 sequence (A7UD81 whole entry C59R/S108N): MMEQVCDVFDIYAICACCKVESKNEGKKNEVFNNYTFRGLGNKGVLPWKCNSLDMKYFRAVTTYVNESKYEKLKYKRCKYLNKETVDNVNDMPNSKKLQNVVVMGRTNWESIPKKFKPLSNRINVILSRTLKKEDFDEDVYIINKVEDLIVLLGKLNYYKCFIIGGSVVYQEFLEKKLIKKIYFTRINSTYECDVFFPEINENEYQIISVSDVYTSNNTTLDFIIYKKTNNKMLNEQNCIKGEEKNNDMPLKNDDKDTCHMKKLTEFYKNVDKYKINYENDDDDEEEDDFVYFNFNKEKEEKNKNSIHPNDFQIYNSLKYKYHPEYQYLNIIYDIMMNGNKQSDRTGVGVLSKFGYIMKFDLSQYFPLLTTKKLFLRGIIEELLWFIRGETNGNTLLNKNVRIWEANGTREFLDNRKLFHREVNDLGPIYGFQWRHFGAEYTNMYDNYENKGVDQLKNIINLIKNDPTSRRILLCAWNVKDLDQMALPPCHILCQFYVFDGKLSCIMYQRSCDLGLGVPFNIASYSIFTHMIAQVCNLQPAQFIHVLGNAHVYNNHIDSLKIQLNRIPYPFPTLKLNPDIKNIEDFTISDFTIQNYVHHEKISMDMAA
T3 sequence (A7UD81 whole entry S108N): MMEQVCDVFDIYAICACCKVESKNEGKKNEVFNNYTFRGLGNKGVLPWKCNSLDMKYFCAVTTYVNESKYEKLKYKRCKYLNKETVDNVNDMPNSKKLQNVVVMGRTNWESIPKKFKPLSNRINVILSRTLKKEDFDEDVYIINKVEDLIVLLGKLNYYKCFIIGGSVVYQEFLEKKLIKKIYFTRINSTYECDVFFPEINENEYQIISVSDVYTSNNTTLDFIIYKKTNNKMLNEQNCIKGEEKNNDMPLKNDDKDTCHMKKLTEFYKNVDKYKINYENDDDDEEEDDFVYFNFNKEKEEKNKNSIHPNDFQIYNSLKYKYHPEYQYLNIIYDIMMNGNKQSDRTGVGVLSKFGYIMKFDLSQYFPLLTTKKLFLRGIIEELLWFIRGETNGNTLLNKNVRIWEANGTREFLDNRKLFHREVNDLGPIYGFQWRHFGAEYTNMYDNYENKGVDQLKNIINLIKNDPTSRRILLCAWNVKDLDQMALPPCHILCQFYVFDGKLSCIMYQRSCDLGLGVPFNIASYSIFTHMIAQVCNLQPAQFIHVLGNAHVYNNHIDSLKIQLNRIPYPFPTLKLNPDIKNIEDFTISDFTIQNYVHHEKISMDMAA

By IC50 is commonly meant the concentration that gives 50% inhibition. By Ki is commonly meant a dissociation constant, usually derived from enzyme kinetics or from competition with a known ligand. On to `COC(=O)CCCc1nc(N)nc(N)c1-c1cccc(Cl)c1` [Example 6, 2,4-diamino-5-(3-chlorophenyl)-6-(3-methoxycarbonylpropyl)pyrimidine], for which the half-inhibitory concentration (IC50) in [1] was 790 ± 100 nM; in [3], 9300 nM; in data set [4], 20000 nM; in data set [5], > 50000 nM; in data set [8] it was > 50000 nM; in data set [12], 22800 nM. The Ki in data set [2] is 1.8 ± 0.4 nM; in [6] it was 2.8 ± 0.2 nM; in data set [7], 0.5 nM; in data set [9], 0.8 ± 0.2 nM; in data set [10], 2.7 ± 1.2 nM; in data set [11] it was 1.7 ± 0.1 nM.
As for `Nc1nc(N)c(-c2ccccc2)c(CCCc2ccccc2)n1` [Example 2, 2,4-diamino-5-phenyl-6-(3-phenylpropyl)pyrimidine], the IC50 is 210 ± 60 nM in data set [1]; 150000 nM in data set [3]; > 50000 nM in [4]; > 50000 nM in data set [5]; > 50000 nM in [8]; 250000 nM in [12]. Further, the Ki was found to be 1.9 ± 0.1 nM in [2]; 2.4 ± 0.1 nM in [6]; 0.5 nM in [7]; 1.1 ± 0.1 nM in data set [9]; 4.7 ± 0.9 nM in data set [10]; 0.9 ± 0.2 nM in [11].
Consider `Nc1nc(N)c(-c2cccc(Cl)c2)c(CCOCCCOc2ccccc2)n1` [Example 7, 2,4-diamino-5-(3-chlorophenyl)-6-[2-(3-phenoxypropyloxy)ethyl]pyrimidine], for which the IC50 in data set [1] was 350 ± 80 nM; in data set [3], 6400 nM; in data set [4], 15000 nM; in [5], > 50000 nM; in data set [8], > 50000 nM; in data set [12], 4900 nM. The Ki in data set [2] worked out at 1.3 ± 0.4 nM; in data set [6], 1.9 ± 0.4 nM; in data set [7], 0.4 ± 0.2 nM; in [9], 0.7 ± 0.1 nM; in data set [10], 1.7 ± 0.2 nM; in data set [11] it was 1.8 ± 0.3 nM.
On to `COC(=O)CCCc1nc(N)nc(N)c1-c1ccccc1` [Example 3, 2,4-diamino-6-(3-methoxycarbonylpropyl)-5-phenylpyrimidine], for which the IC50 in data set [1] is 390 ± 60 nM; in data set [3], 71000 nM; in data set [4] it was 20000 nM; in [5] it was > 50000 nM; in [8], > 50000 nM; in [12] it was 500000 nM. For the same compound, the Ki was found to be 15 ± 3 nM in data set [2]; 5.5 ± 0.5 nM in data set [6]; 0.6 nM in data set [7]; 3.3 ± 0.6 nM in data set [9]; 24 ± 2 nM in data set [10]; 1.8 ± 0.2 nM in [11].
For `Nc1nc(N)c(-c2cccc(Cl)c2)c(CCCc2ccccc2)n1` [Example 4, 2,4-diamino-5-(3-chlorophenyl)-6-(3-phenylpropyl)pyrimidine], the IC50 in data set [1] was 670 ± 60 nM; in data set [3], 1600 nM; in data set [4], 2100 nM; in [5], > 50000 nM; in [8], > 50000 nM; in data set [12], 1600 nM. Besides, the Ki in [2] came out at 2.2 ± 0.3 nM; in [6], 4.2 ± 0.2 nM; in data set [7] it was 1.2 ± 0.2 nM; in data set [9], 2 ± 0.2 nM; in [10], 2 ± 0.8 nM; in data set [11] it was 3 ± 0.6 nM.
On to `CCCCCCc1nc(N)nc(N)c1-c1ccccc1` [Example 1, 2,4-diamino-6-(n-hexyl)-5-phenylpyrimidine], for which the IC50 in [1] is 60 ± 20 nM; in data set [3], 113000 nM; in [4], 55000 nM; in data set [5], > 10000 nM; in [8] it was > 10000 nM; in [12], 268000 nM. Besides, the Ki in [2] was found to be 0.7 ± 0.2 nM; in data set [6] it was 0.7 ± 0.3 nM; in [7] it was 0.3 ± 0.1 nM; in data set [9] it was 0.4 ± 0.02 nM; in data set [10] it was 1.4 ± 0.5 nM; in data set [11] it was 1.2 ± 0.3 nM.
Turning to `COc1ccc(CCCc2nc(N)nc(N)c2-c2cccc(Cl)c2)cc1` [Example 5, 2,4-diamino-5-(3-chlorophenyl)-6-[3-(4-methoxyphenyl)propyl]pyrimidine], the IC50 in data set [1] was 410 ± 50 nM; in [3], 15000 nM; in [4], 3000 nM; in data set [5], > 50000 nM; in data set [8], 38000 nM; in [12], 3000 nM. Moreover, the inhibition constant (Ki) was found to be 2.9 ± 0.3 nM in data set [2]; 6 ± 0.6 nM in [6]; 2.2 ± 0.6 nM in [7]; 1.3 ± 0.1 nM in data set [9]; 2 ± 0.4 nM in data set [10]; 4 ± 0.2 nM in data set [11].
Consider `CCc1nc(N)nc(N)c1-c1ccc(Cl)cc1` [Pyr, pyrimethamine, reference compound], for which the IC50 in data set [1] was 80 ± 10 nM; in [3], 109000 nM; in data set [12], 40000 nM.
In the case of `COc1cc(Cc2cnc(N)nc2N)cc(OC)c1OC` [Trimethoprim, reference compound], the IC50 in [5] was found to be 2300 nM; in [8], 6000 nM.

The values are drawn from patent publication US7371758B2, “Antimalarial pyrimidine derivatives and methods of making and using them” (National Science & Technology Development Agency, priority 2003, dated 2008).
